Source: US10293004B2, “Butyrate-producing bacterium and use thereof” (KABUSHIKI KAISHA YAKULT HONSHA, priority 2014, dated 2019)

What was measured:
[1] = Production of butyrate by each bacterial strain from L-sorbose and D-xylitol (ion-exclusion HPLC); conditions: 24 hours, minus PYA blank
Procedure: A frozen stock solution of each bacterial strain (a 10% (w/v) skim milk-2% sodium glutamate solution in which bacterial cells were suspended) (cell count: 2.0 to 5.5×10^10 cells/mL) was thawed, and the solution was inoculated at 1% to 4 mL of a PY liquid medium supplemented with 33 mM sodium acetate and 0.5 (w/v) % glucose (PYGA medium), followed by anaerobic culture at 37° C. for 24 hours. After the culture, the culture solution was inoculated at 1% to a fresh PYGA medium, followed by anaerobic culture at 37° C. for 24 hours. After the culture, the turbidity (OD660) of the culture solution was measured. Then, the culture solution was inoculated at 1% to a PY medium containing 0.5 (w/v) % L-sorbose or D-xylitol and 33 mM sodium acetate (the medium containing L-sorbose: PYSA, and the medium containing D-xylitol: PYXA), followed by anaerobic culture at 37° C. for 24 hours. Then, the turbidity (OD660) was measured.
After the completion of the culture, the organic acid concentration in the culture solution was quantified by ion-exclusion HPLC. In this operation, a culture solution in a PY medium supplemented with sodium acetate but without L-sorbose or D-xylitol (PYA medium) was used as a blank.
(HPLC Analysis Conditions) • Eluent: 15 mM perchloric acid-7% acetonitrile • pH adjuster: 15 mM perchloric acid-60 mM • tris(hydroxymethyl)aminomethane-7% acetonitrile • Separation column: Organic acid analysis column RSpak KC- • 811×2 (manufactured by Showa Denko K.K.) • Column temperature: 42° C. • Injected sample volume: 10 μL • Flow rate: 1.0 mL/min • Analysis time: 35 min • Detector: Waters 432 electric conductivity detector • Cell temperature: 45° C.
The amount of butyrate produced was calculated according to (Expression 1). Amount of butyrate produced=(Amount of butyrate produced by culture for 24 hours in a PYSA or PYXA medium)−(Amount of butyrate produced by culture for 24 hours in a PYA medium) (Expression 1)

[2] = Biochemical properties: enzymatic activity (API-ZYM, Rapid ID32A API, API KENKI 20A); parameters: key: +: positive reaction; −: negative reaction; +^w: weak reaction
Text: (§1) Commercially available API-ZYM, Rapid ID32A API, and API KENKI 20A (SYSMEX bioMerieux Co., Ltd.) were used in the testing of biochemical properties of various bacterial strains. The testing method followed the product manuals.

[3] = Biochemical properties: saccharide fermentability (API-ZYM, Rapid ID32A API, API KENKI 20A); parameters: key: +: positive reaction; −: negative reaction; +^w: weak reaction
Text: as §1

[4] = test system: mouse C57BL/6J; assay: Single oral dose test of YIT 12355 to mouse given indigestible saccharide; type: in vivo
Procedure: Mice were acclimatized and raised with F2 feed for 1 week and then divided into 4 groups such that the average body weight was almost equal among these groups. A control diet (Table 12) was administered thereto for 1 week. Then, the control diet was administered to the control group (−/− group) and the AH/− group for 2 weeks while purified feed containing maltitol (MAL-containing diet) was administered to the −/MAL group and the AH/MAL group for 2 weeks. A live cell suspension of YIT 12355 was administered at a single dose using a probe after the administration of the control diet for 1 week. At the final day of the test, each mouse was dissected, and the cecal contents were recovered. The cecal contents were subjected to the cell count measurement of YIT 12355. • Test material: Maltitol (5% mixed feed administration) • Administered bacterial strain: YIT 12355 • Animal species: Mouse C57BL/6J (4 weeks old; CLEA Japan, Inc.) • Group configuration: 7 mice×4 groups The bacterial solution (viable count: 3.1×10^9 cfu/mL, total cell count: 1.9×10^10 cells/mL) prepared in the preceding paragraph 2) was orally administered at a single dose of 0.2 mL (viable count: 6.2×10^8 cfu/mouse, total cell count: 3.8×10^9 cells/mouse) to each mouse using a probe. To the control group and the −/MAL group, 0.2 mL of physiological saline was administered instead of the bacterial solution. […] Then, the cecal contents were recovered. The cecal contents were diluted 10-fold with PBS and subjected to DNA extraction. DNA was extracted by the bead-phenol method described in the paragraph 4)a) of Example 5 from the 10-fold diluted solution of the intestinal tract contents. The cell count of YIT 12355 was measured by quantitative PCR using the obtained DNA as a template and the bacterial species-specific primers described in the paragraph 4)a) of Example 5. After fixation of a portion of the 10-fold diluted solution of the intestinal tract contents in a 4% solution of paraformaldehyde in PBS, the total cell count was measured by the DAPI counting method. The cell count of YIT 12355 was divided by the total cell count to calculate an occupancy (%). (Occupancy of YIT 12355) (%)=(Cell count of YIT 12355/Total cell count)×100 (Expression 5)

[5] = test system: mouse fresh feces; assay: Relationship between increase in cell count of YIT 12355 and butyrate concentration in mouse feces culture system
Procedure: 0.8 g of mouse fresh feces obtained 1 week after the start of the single dose test of Example 6 was collected into a sample tube and the tube was transferred into a glove box with the low-temperature and anaerobic state maintained. The feces were diluted with PBS anaerobically substituted in advance (final dilution: 12.5-fold), and a maltitol solution (final concentration: 0.5%) and/or a cultured bacterial solution of YIT 12355 (1% inoculated) was added thereto, followed by anaerobic culture at 37° C. for 24 hours. After the culture, the butyrate concentration was measured by ion-exclusion HPLC using an electric conductivity detector.

[6] = summary in words of Table 13, single dose

Q: Which results are given for “A. hadrus (Eubacterium hadrum) YIT 12355 (NITE BP-01832)”?
A: Amount of butyrate produced ([1]; D-Xylitol 0.5 (w/v) %, PYXA medium): 31.9 mmol/L; Amount of butyrate produced ([1]; L-Sorbose 0.5 (w/v) %, PYSA medium): 15.4 mmol/L; Acid phosphatase [2]: +; Alkaline phosphatase [2]: +; Esterase (C4) [2]: +; Naphthol-AS-B1-phosphohydrolase [2]: +; α-Glucosidase [2]: +^w; β-Galactosidase [2]: +; β-Galactosidase-6-phosphate [2]: −; Aesculin [3]: +; D-Cellobiose [3]: +^w; D-Mannitol [3]: +; D-Raffinose [3]: −; D-Xylose [3]: +; Glycerol [3]: +^w; L-Arabinose [3]: +; L-Rhamnose [3]: +; L-Sorbitol [3]: +; Mallose [3]: +; Salicin [3]: +; Total cell count ([4]; cecum, DAPI counting method, single oral dose): 10.9 ± 0.4 log10 (cells/g contents); Cell count, A. hadrus YIT 12355 ([4]; cecum, quantitative PCR, single oral dose): 8.0 ± 0.3 log10 (cells/g contents); Occupancy ([4]; cecum, ratio to total cell count, single oral dose): 0.3%; cell count of YIT 12355 [4, 6]: largely changes neither; occupancy of YIT 12355 [4, 6]: largely changes neither; cell count of A. hadrus [5]: increased; butyrate concentration ([5]; maltitol 0.5% and/or YIT 12355 1% inoculated, 37° C. 24 hours, FIG. 8): increased
